Experiments:
[1] = test system: spleen cells; assay: Activation of spleen cells of healthy C57BL/6 mice in vivo; conditions: 0.05, 0.2 and 0.8 mg/kg i.p. qd x 7 doses
Protocol: Next, we intraperitoneally administered different dosages of APG-1387 to healthy C57BL/6 mice every day. Each group has 3 mice. After 7 days of continuous administration, the spleen was taken to obtain a single cell suspension. NK, macrophage, dendritic cells and T cells were analyzed by flow cytometry to obtain the proportion of these subsets, thus evaluate the effect of APG-1387 on each immune cell subpopulation.

[2] = test system: CT26 colorectal cancer; assay: Combination therapy in CT26 mouse colorectal cancer model; format: in vivo; conditions: APG-1387 0.2 mg/kg i.v. once daily, docetaxel 8 mg/kg i.p. once weekly, anti-PD-1 200 μg/mouse i.p. twice weekly
Protocol: (§1) Cell inoculation method was used to establish a […] tumor-immunized normal mouse subcutaneous homograft tumor model: tumor cells in logarithmic growth phase were collected, counted, and then resuspended in 1×PBS. The concentration of the cell suspension was adjusted to 2.5-5×10^7/mL. Tumor cells, 5-10×10^6/0.2 mL/mouse, were inoculated subcutaneously in the right back of the immunized normal mouse with a 1 mL syringe ([…]). All animal experimental operations were strictly in accordance with standards for use and management of laboratory animals by Gima Gene Co., Ltd and Suzhou Yasheng Pharmaceutical Co., Ltd. Relevant parameters were calculated with reference to China's NMPA “Guidelines for Non-clinical Research Techniques of Cytotoxic Antitumor Drugs”.
Animal weight and tumor size were measured twice a week during the experiment. Animals were observed daily for status and the occurrence of death. Routine monitoring included the effects of tumor growth and treatment on the normal behaviors of animals, specifically including the activity, feeding and drinking, weight gain or loss, eyes, clothing hair, as well as other abnormalities of the laboratory animals. The deaths and clinical symptoms observed during the experiment were recorded in the original data. The whole process of administration, measurement of mouse weight and tumor volume was carried out in an ultra-clean bench. According to requirements of the experimental program, plasma and tumor tissue were collected, weighed and photographed for record after the end of last administration. Plasma and tumor samples were frozen at −80° C. for later use.
(§2) Tumor volume (TV) was calculated as TV=a×b^2/2, wherein a and b represented the length and width of tumor measurement, respectively.
(§3) Relative tumor volume (RTV) was calculated as RTV=Vt/V1, wherein V1 was the tumor volume at the time of grouping administration, and Vt was the tumor volume measured on day t after administration.
The evaluation index of anti-tumor activity was relative tumor proliferation rate T/C (%), and was calculated as: relative tumor proliferation rate T/C (%)=(TRTV/CRTV)×100%, wherein TRTV was RTV in treatment group, and CRTV was RTV in vehicle control group.
Tumor remission rate (%) was the number of SD (stable disease), PR (partial regression) and CR (complete regression) in tumor-bearing mice after treatment divided by the total number of mice in that group×100%. CR refers to the complete regression of the tumor, which means the tumor is inaccessible after treatment. PR refers to the partial regression of the tumor, which means tumor volume becomes smaller than before treatment. SD refers to stable tumor progression, which means tumor volume is the same as before treatment. Change of body weight (%)=(measurement of body weight−body weight when grouping)/body weight when grouping×100%.
Efficacy evaluation criteria: according to China's NMPA “Guidelines for Non-clinical Research Techniques of Cytotoxic Antitumor Drugs” (November 2006), T/C (%) value 40% and p<0.05 by statistical analysis were considered as efficacious. If the weight loss of mice exceeded 20%, or the drug-related death percentage exceeded 20%, the drug dose was considered to be severely toxic.
According to Clarke R., Issues in experimental design and endpoint analysis in the study of experimental cytotoxic agents in vivo in breast cancer and other models [J].
A tumor model of CT26 colorectal cancer mouse was established, and the combined anti-tumor effect of APG-1387 with anti-PD-1 antibody and docetaxel was evaluated on this model. The administration regimen was as follows:
APG-1387 monotherapy group: 0.2 mg/kg, intravenous injection, once daily for a total of 17 days;
Docetaxel monotherapy group: 8 mg/kg, intraperitoneal injection, once weekly for a total of 17 days;
Anti-PD-1 antibody monotherapy group: 200 μg/mouse, intraperitoneal injection, twice weekly for a total of 2.5 weeks (i.e., 17 days); […]

[3] = test system: MC38 colon cancer; assay: Tumor growth in MC38 homologous mouse colon cancer model; format: in vivo
Protocol: as §1, §2, §3
The evaluation index of anti-tumor activity was relative tumor proliferation rate T/C (%), and was calculated as: relative tumor proliferation rate T/C (%)=(TRTV/CRTV)×100%, wherein TRTV was RTV in treatment group, and CRTV was RTV in vehicle control group. […]

[4] = test system: effector memory T cells and NK cells; assay: Lymphocyte analysis (flow cytometry) in MC38 tumor-bearing mice; format: in vivo, mouse; conditions: MC38 model; APG-1387 0.2 mg/kg
Protocol: In the experiment of tumor-infiltrated lymphocyte analysis, tissue samples such as spleen, draining lymph node, ascites, tumor or other tissues were collected 24 hours after the last drug administration. A single cell suspension of the spleen and draining lymph nodes was obtained, and the red blood cells were lysed after centrifugation, and the cells were filtered, followed by flow cytometric staining and flow cytometry. The tumor tissue was cut and centrifuged, and the tissue was digested, the cells were filtered. Ficoll was used to separate individual nuclei. Individual nuclei were collected for corresponding antibody flow staining and flow cytometry Ascites samples were collected and centrifuged, and the cells were filtered and subjected to flow cytometry staining and flow cytometry.
The spleen, draining lymph nodes and tumor tissues of MC38 tumor-bearing mice were collected 24 hours after the last administration. Ascites of ID8-Luc tumor mice, tumor tissues of PLC/PRF/5 tumor mice were subjected to tumor infiltrating lymphocyte analysis. The proportion of lymphocytes in the APG-1387 treatment group and control group was analyzed to explore the potential mechanism of anti-tumor effect of APG-1387 combined with anti-PD-1 antibody.

[5] = Phase I study: APG-1387 pharmacokinetics in plasma (LC-MS/MS); format: in vivo, human
Protocol: APG-1387 was IV administered for 30 minutes once weekly in a 21-day-cycle.

[6] = test system: Murine MC38 colon cancer cells; assay: Subcutaneous xenograft model of murine MC38 colon cancer; format: in vivo, female C57BL/6 mice; conditions: MC38 s.c.
Protocol: • (1) APG-1387: provided by Jiangsu Ascentage Pharmaceutical Development Co., Ltd. The batch number is R12JA076140-A2 and PAPG-1387-DP-201305A. Preserved at 4° C., away from the light and sealed. APG-1387 was administered intravenously (i.v.) or intraperitoneally (i.p.) or at a dosage of 10 mL/kg. APG-1387 was dissolved in 5% castor oil/10% PEG400/85% normal saline. • (2) Anti-PD-1 antibody: purchased from BioXcell. The article number is BE0146 and BE0273. Preserved at 4° C. and sealed. The anti-PD-1 antibody was administered intraperitoneally at a concentration of 100 μg per mice or 200 μg per mice. • (3) Isotype control (anti-IgG): purchased from BioXcell, the product number is BE0089. […]
The mice were injected subcutaneously with 0.5-10×10^6 cells or in the ovary with 6×10^6 cells in situ to build the tumor xenograft model. […] For the orthotopic model, tumor growth was measured by examining in vivo fluorescence images 10 days after inoculation. […] Body weight and tumor size were measured twice per week during the experiment. […]
Using the fluorescence imaging technique, the strength of the fluorescent signal can represent the growth and metastasis of tumors in vivo.
The tumor growth curve and the animal body weight curve were plotted, with time on the X-axis and tumor volume and animal body weight on the Y-axis. […] All data were analyzed using SPSS 18.0 (*P<0.05, **P<0.01, ***P<0.001, ****P<0.0001).

[7] = over the range of 20 to 45 mg, preliminary PK data

CN[C@@H](C)C(=O)N[C@H]1CN(S(=O)(=O)c2cccc(S(=O)(=O)N3CC[C@H]4CC[C@@H](C(=O)NC(c5ccccc5)c5ccccc5)N4C(=O)[C@@H](NC(=O)[C@H](C)NC)C3)c2)CC[C@H]2CC[C@@H](C(=O)NC(c3ccccc3)c3ccccc3)N2C1=O [APG-1387]
proportion of 9 types of immune cells in the spleen [1]: no effect | T/C (%) value on day 18 after administration [2]: 105% | RTV on day 14 after administration ([3]; APG-1387 0.2 mg/kg i.v., anti-PD-1 5 mg/kg i.p., twice weekly, 2 times): 11.0 ± 1.2 | T/C (%) value on day 14 after administration ([3]; day 14): 70% | proportion of NK cells in the spleen and lymph nodes [4]: no significant effect | increase in AUC [5, 7]: approximately dose proportional | increase in Cmax [5, 7]: approximately dose proportional | accumulation ([5]; weekly dosing regimen): no significant accumulation | median survival time [6]: 33.0 days | T/C value on the 22nd day after administration ([6]; APG-1387 0.2 mg/kg i.v., anti-PD-1 100 μg/mouse i.p., q3d x 2 doses): 69.6%

From patent publication US12186304B2, “Method for treating cancer by combination of IAP inhibitor and modulator of immune checkpoint molecule” (ASCENTAGE PHARMA (SUZHOU) CO., LTD., priority 2018, dated 2025)
